Test results reported in PMC12040169 (PLOS Biology, 2025).

Assay: in vitro
Settings: human, hela cells, % viability

SMILES | viability at 28.5 h, 10 µM [%]
O=C(NC1CCN(c2nc3cccnc3s2)CC1)c1ccsc1 [CBK304342] | 93
CCCC(=O)N1CCC(C(=O)Nc2ccccc2F)CC1 [CBK304346] | 108
CC1(C)CC(NC(=O)Cn2ccc3ccccc32)CCO1 (stereo not drawn) [CBK304347] | 98
CC(C)c1nc(C(=O)NCC2CCCN(c3ncccn3)C2)cs1 (stereo not drawn) [CBK304351] | 100
COCCN(CC1CC1)C(=O)c1cc(NC(C)=O)ccc1Cl [CBK304352] | 109
O=C(CCCOc1ccccc1)N1CCN(c2cccc(Cl)c2)CC1 [CBK304354] | 107
Cc1nn(C)c(C)c1CCC(=O)NCC1CCN(c2ccccc2F)C1 (stereo not drawn) [CBK304357] | 96.7
Cc1cc(NC(=O)C2CCN(C(=O)c3c(F)cccc3F)CC2)no1 [CBK304359] | 95.9
CN(Cc1cccc(C(F)(F)F)c1)C(=O)c1cn(CC2CCCO2)nn1 (stereo not drawn) [CBK304360] | 99.8
COc1ccc2cc(C(=O)N3CCn4cncc4C3)n(C)c2c1 [CBK304362] | 98.6
Cn1nccc1CCNC(=O)c1cccc(S(=O)(=O)N2CCCCC2)c1 [CBK304363] | 97
CCS(=O)(=O)N1CCC(C(=O)NC2CC(C)(C)Oc3ccccc32)CC1 (stereo not drawn) [CBK304364] | 90.1
CC1(C)CC(NC(=O)C2CCCN(S(C)(=O)=O)C2)c2ccccc2O1 (stereo not drawn) [CBK304365] | 98.2
CC(C)NC(=O)CN1CCN(Cc2nc(-c3cccc(Cl)c3)no2)CC1 [CBK304369] | 100
O=C(CN1CCCCC1CN1CCOCC1)NCc1ccccn1 (stereo not drawn) [CBK304375] | 115
CCOC(=O)c1cnc2ccc(F)cc2c1N1CCN(C)CC1 [CBK304376] | 90.1
Cc1nc(CCNC(=O)C2CCN(C(=O)c3ccc(F)cc3)CC2)cs1 [CBK304378] | 105
Cn1nc(C2CC2)cc1NC(=O)NCC1CCN(c2ccccc2F)C1 (stereo not drawn) [CBK304380] | 85.2
O=C(Nc1ccc2nc3n(c(=O)c2c1)CCCC3)C1CCCCC1 [CBK304383] | 91.9
COC(=O)c1cc(S(=O)(=O)N2c3ccccc3CC2C)cn1C (stereo not drawn) [CBK304384] | 81.4
CCOC(=O)Cc1nnc(-c2cccc(C(F)(F)F)c2)[nH]1 [CBK304385] | 81.1
COC(=O)c1ccc(NC(=O)N(Cc2cnn(C)c2)CC(C)C)cc1Cl [CBK304387] | 93.1

SMILES | viability at 28.5 h, 10 µM [%]
CC(=O)Nc1ccc(F)c(NC(=O)NCC2CCOC2)c1 (stereo not drawn) [CBK304388] | 107
CSc1cccc(C(=O)Nc2sc3c(c2C#N)CCN(C(C)=O)C3)c1 [CBK304390] | 56
CCCN(CCC)C(=O)c1ccc(NC(=O)CC)cc1 [CBK304391] | 91.8
O=C1CCC(N2CCN(c3ncnc4ccccc34)CC2)CCN1 (stereo not drawn) [CBK304393] | 96.8
COc1ccc(CN2CCN(C(=O)c3cccc(F)c3)CC2)cc1 [CBK304396] | 97
Cc1cc(C)n(CCCC(=O)N2CCC3(CCCO3)CC2)n1 [CBK304397] | 102
COCCN1CC(CNC(=O)Nc2cc(NC(C)=O)ccc2F)CC1=O (stereo not drawn) [CBK304398] | 82.4
Cc1cccc(C(=O)N2CCN(Cc3nc4ccccc4[nH]3)CC2)c1 [CBK304399] | 90.2
CCn1ncnc1CN1CCN(C2Cc3ccccc3C2)CC1 [CBK304401] | 101
COc1ccc(S(=O)(=O)NC(CCSC)c2nnc3ccccn23)cc1 (stereo not drawn) [CBK304402] | 109
CC1(C)CC(NC(=O)C2CCN(S(C)(=O)=O)CC2)c2ccccc2O1 (stereo not drawn) [CBK304404] | 103
Cc1cc(C)c(NC(=O)N(CCCO)Cc2ccncc2)c(Cl)c1 [CBK304406] | 87.3
Cc1nc(-c2ccc(Cl)cc2)sc1C(=O)N1CCCC(C(=O)O)C1 (stereo not drawn) [CBK304407] | 91.9
CCc1cc(C(=O)NC(Cn2ccnc2)C(C)(C)C)cc(=O)[nH]1 (stereo not drawn) [CBK304410] | 101
OCC(CNc1ncnc2nc[nH]c12)Cc1ccccn1 (stereo not drawn) [CBK304412] | 83.4
O=C(c1c[nH]c(=O)c(Cl)c1)N1CCCCC1CN1CCOCC1 (stereo not drawn) [CBK304416] | 119
CC(=O)c1ccc(C(=O)Nc2sc3c(c2C#N)CCN(C(C)=O)C3)cc1 [CBK304418] | 84.8
Cc1nc(CC(=O)NC2CCCN(c3ccn(C)n3)C2=O)c(C)s1 (stereo not drawn) [CBK304422] | 82.8
Cc1nc(-c2ccc(NCCc3nc(C4CC4)cs3)nc2)[nH]c(=O)c1C [CBK304424] | 108
Cc1csc(C(C)NC(=O)NC2CCCN(c3ccn(C)n3)C2=O)n1 (stereo not drawn) [CBK304426] | 107
Cc1ccc(C#N)cc1S(=O)(=O)NC(=O)COCC1CC1 [CBK304427] | 113
CCOc1cc(NC2CCN(C(=O)C3(CCOC)CC3)CC2)ncn1 [CBK304434] | 98.2

SMILES | viability at 28.5 h, 10 µM [%]
COc1ccc(CCNC(=O)Cn2ccc(C3CCCNC3)n2)cc1 (stereo not drawn) [CBK304444] | 76.3
COCc1nc2n(n1)CC(NC1CCCCc3ccccc31)CC2 (stereo not drawn) [CBK304445] | 89.4
Cc1cccc(N2CCOC3(CCCC3)C2)n1 [CBK304446] | 82.1
Cc1noc(C)c1CN1CCC(c2ccccc2)C1 (stereo not drawn) [CBK304451] | 109
CC1CN(CCCCNCc2cn(C)nc2-c2cccnc2)CC(C)O1 (stereo not drawn) [CBK304453] | 92.6
CC(c1ccc(F)c(F)c1)N(C)C(=O)CN1CCCc2occc2C1 (stereo not drawn) [CBK304456] | 82.9
Cc1cc(C)cc(C(O)CNC2CCN(Cc3cscn3)CC2)c1 (stereo not drawn) [CBK304457] | 94.4
Cc1nc(-c2cc3c(s2)CCN(CC(O)COCc2ccco2)C3)cs1 (stereo not drawn) [CBK304460] | 89.4
Cc1nc(C2CN(c3ccnc4c(F)cccc34)CCO2)no1 (stereo not drawn) [CBK304464] | 80.7
COC(=O)CCN(Cc1nnc(C2CC2)o1)C(C)C [CBK304470] | 84.6
Cc1c(C(=O)N2CCNCC2C)nnn1-c1ccc2ncccc2c1 (stereo not drawn) [CBK304473] | 94.6
Cc1csc2c(N3CCCC3CC(O)c3cnn(C)c3)ncnc12 (stereo not drawn) [CBK304477] | 91.9
COC(C)CN(C)C(=O)c1nnn(-c2ccc3ncccc3c2)c1C (stereo not drawn) [CBK304484] | 85.8
CCCn1c(C)nnc1CN(CC1CCCO1)C1CCC(C)CC1 (stereo not drawn) [CBK304485] | 92
COc1cccc(C2(C(=O)N3CCc4nc[nH]c(=O)c4C3)CC2)c1 [CBK304488] | 83.3
O=C(C1CCCN1)N1CC2(CCCC2)c2c(F)cccc21 (stereo not drawn) [CBK304489] | 90.1
CN1CCCC1CNCc1cn(-c2ccccc2)nc1-c1cccnc1 (stereo not drawn) [CBK304490] | 118
O=C(O)C1CCCN(C(=O)Cc2csc(COc3ccc(Cl)cc3)n2)C1 (stereo not drawn) [CBK304501] | 88.1
Cc1ccc(CCC(=O)N(CC(=O)O)C2CCOCC2)c(C)c1 [CBK304509] | 91.6
CN(C)C(CNCc1cn(C)nc1-c1cccnc1)c1ccccc1 (stereo not drawn) [CBK304511] | 84.8
CCOCC1CCN(C(=O)c2ncsc2Nc2cccnc2)C1 (stereo not drawn) [CBK304514] | 110
CN(C)C(=O)c1cccc(NC(=O)C2CCCCC2)c1 [CBK304515] | 89.7
